Results from US20140194353A1, “COMPOSITIONS AND METHODS FOR THE TREATMENT OF NERVOUS DISORDERS ASSOCIATED WITH DIABETES” (Joslin Diabetes Center, Inc., priority 2010, published 2014).

What was measured:
[1] = tested on: Pomc, Agrp, Npy expression; test: qPCR of neuropeptides regulating appetite in hypothalamus after insulin ICV injection; type: in vivo, mouse; settings: STZ-diabetic mice
Experimental: (§1) For qPCR, RNA was isolated using an RNeasy kit (Qiagen). As a template, 1 μg (for tissue) or 0.2 μg (for glia and neurons) of total RNA was reverse-transcribed in 50 μl using a High Capacity cDNA Reverse Transcription Kit (Applied Biosystems) according to the manufacturer's instructions. Three microliters of diluted (1/4) reverse transcription reaction was amplified with specific primers (300 nM each) in a 25 μl PCR with a SYBR Green PCR Master Mix (Applied Biosystems). Analysis of gene expression was done in the ABI PRISM 7000 sequence detector with an initial denaturation at 95° C. for 10 minutes followed by 40 PCR cycles, each cycle consisting of 95° C. for 15 seconds and 60° C. for 1 minute, and SYBR Green fluorescence emissions were monitored after each cycle. For each gene, mRNA expression was calculated relative to Tbp (mouse) or ribosomal 18S (human) expression as an internal control.
To assess the effects of insulin, we directly administered insulin into the cerebral ventricles of STZ-induced diabetic mice by 3 injections of insulin into a catheter placed in the lateral ventricle. […] Food intake was measured immediately before the ICV injection. Four hours after the last injection, blood glucose levels were measured, and the hypothalami collected.

[2] = tested on: STZ-diabetic mice; test: Food intake after ICV injection in STZ-diabetic mice; type: in vivo, mouse; settings: insulin ICV injection
Description: To assess the effects of insulin, we directly administered insulin into the cerebral ventricles of STZ-induced diabetic mice by 3 injections of insulin into a catheter placed in the lateral ventricle. Briefly, seven-week-old C57Bl/6 mice were placed in a stereotactic device under anesthesia, and a 26-gauge guide cannula (Plastics One Inc., Roanoke, Va.) was inserted into the right lateral cerebral ventricle (1.0 mm posterior, 1.0 mm lateral, and 2.0 mm ventral to the bregma). A dummy stylet cannula was inserted into each cannula until used. After a 1 week recovery, mice received a single i.p. injection of STZ to induce diabetes. Twelve days later, the mice received three ICV injections of insulin (3 mU in 2 μL) or the same volume of PBS (9 AM, 7 PM and 9 AM the following day) through an internal cannula using a Hamilton microsyringe. Food intake was measured immediately before the ICV injection. Four hours after the last injection, blood glucose levels were measured, and the hypothalami collected.

[3] = tested on: SREBP-2 and its downstream cholesterologenic genes in the hypothalamus; test: qPCR of Srebf2 and cholesterologenic genes in hypothalami of STZ-diabetic mice; type: in vivo, mouse
Experimental: (§2) For STZ-induced diabetes and systemic insulin therapy experiments, 7-week-old C57Bl/6 mice were treated with a single intraperitoneal (i.p.) injection (200 μg/g body weight) of STZ (Sigma). After 2 days, the mice were separated into two groups. Half remained untreated, and the other half were treated with subcutaneous insulin pellets (LinShin, Toronto, Canada) for one week to control blood glucose levels. For phlorizin (PHZ) treatment, 8-week-old C57Bl/6 mice were treated with STZ. PHZ (Sigma) was dissolved in a solution containing 10% ethanol, 15% DMSO, and 75% saline and was injected subcutaneously (0.4 g/kg) twice daily for 10 days starting 8 days after the STZ injection. Control mice were injected with the same volume of vehicle.
as §1, with “Three microliters of diluted (1/4) reverse transcription reaction was amplified with specific primers (300 nM each) in a 25 μl PCR with a SYBR Green PCR Master Mix (Applied Biosystems).” left out
To determine whether hyperglycemia or insulin insufficiency was predominantly responsible for the above-observed suppression of cholesterol synthesis pathway in the diabetic mouse brain, we treated the STZ-induced diabetic mice with phlorizin (PHZ), a flavonoid which can decrease blood glucose levels by inhibition of renal glucose transport without restoring insulin secretion using the methods disclosed in Example 1. […] Control mice were injected with the same volume of vehicle. mRNA levels were then assessed by qPCR as disclosed in Example 1. […]

[4] = tested on: STZ-diabetic mice; test: Blood glucose levels in STZ-diabetic mice; type: in vivo, mouse
Experimental: as §2
To determine whether hyperglycemia or insulin insufficiency was predominantly responsible for the above-observed suppression of cholesterol synthesis pathway in the diabetic mouse brain, we treated the STZ-induced diabetic mice with phlorizin (PHZ), a flavonoid which can decrease blood glucose levels by inhibition of renal glucose transport without restoring insulin secretion using the methods disclosed in Example 1. Additionally, phlorizin (PHZ) treatment was performed using 8-week-old C57Bl/6 mice previously treated with STZ. […] Control mice were injected with the same volume of vehicle. mRNA levels were then assessed by qPCR as disclosed in Example 1. […]

[5] = tested on: primary mouse cultured cortical neurons and glia; test: Insulin stimulation of primary cultured cortical neurons and glia, qPCR of cholesterologenic genes; type: cell-based
Experimental: as §1
To dissect the cell type and factors regulating the changes in cholesterol biosynthesis, neuron and glial cells (astrocytes) were isolated and cultured from the cortices of 16-day-old C57Bl/6 mouse embryos and 1-day-old neonates, respectively. Briefly, the cerebral cortex was dissected from 0-1 day old for glia and day 16 embryonic C57Bl/6 mice under aseptic conditions. Large blood vessels were carefully removed under the microscope. […]

[6] = tested on: cultured neurons; test: Pharmacological inhibition of insulin signaling pathways, cholesterol synthetic gene expression; type: cell-based, mouse

Compound: insulin
- expression of neuropeptides involved in feeding behavior (Pomc, Agrp, Npy) [1]: partially normalized
- hyperphagia induced by STZ diabetes (food intake) [2]: partly reversed the hyperphagia
- changes in cholesterologenic genes in hypothalamus of diabetic mice ([3]; subcutaneous insulin pellets for one week, qPCR): reversed
- suppression of SREBP-2 pathway in the hypothalamus ([3]; three ICV injections of insulin (3 mU in 2 μL), 4 hours after last injection): almost completely normalized
- blood glucose levels ([4]; three ICV injections of insulin (3 mU), 4 hours after last injection): did not affect blood glucose levels
- stimulation of expression of all cholesterologenic genes ([5]; insulin 10-100 nM, 6 hours, qPCR): 30 to 270%
- cholesterol synthetic gene expression ([5]; primary cultured glia and neurons, 18 days in vitro, insulin 6 h): induces cholesterol synthetic gene expression

Compound: O=C(CCc1ccc(O)cc1)c1c(O)cc(O)cc1O[C@@H]1O[C@H](CO)[C@@H](O)[C@H](O)[C@H]1O [PHZ, phlorizin]
- suppression of SREBP-2 and its downstream genes in the hypothalamus ([3]; PHZ 0.4 g/kg s.c. twice daily for 10 days, qPCR): did not, however, reverse suppression
- hyperglycemia (blood glucose) ([4]; PHZ 0.4 g/kg s.c. twice daily for 10 days): efficiently normalized hyperglycemia

Compound: N#CC(=C(/N)Sc1ccccc1N)/C(C#N)=C(\N)Sc1ccccc1N [U0126]
- insulin's effect on Hmgcr induction ([6]; inhibitor given prior to insulin stimulation): partially suppressed

Compound: Cn1cc(C2=C(c3ccc(Cl)cc3Cl)C(=O)NC2=O)c2ccccc21 [SB216763]
- expression of cholesterol synthetic genes ([6]; GSK3 inhibitor treatment, mimicked insulin's effects): broad increase in expression of cholesterol synthetic genes
